System: 699152-130-R-J1-PDC complex spheroid growth
Assay: Anticancer human tumor 699152-130-R-J1-PDC patient-derived pancreatic carcinoma cell line growth inhibition [AhR]
Conditions: for IC50: curve of first compound; for viability, T/C: stronger effect = lower value; active = viability on the fitted dose curve at most 10% of control; inactive = the rest
Procedure, shortened: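 Agents were dosed in half-log steps down from roughly clinical Cmax, or from 10 microM where Cmax was unknown, alone and with AhR antagonists. Read-out: percent test/control growth of tumor spheroids containing HUVEC and MSC stromal cells.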

[1] = second compound 0.1 µM, first compound 0.000949 µM
[2] = second compound 0.1 µM, first compound 0.003 µM
[3] = second compound 0.1 µM, first compound 0.00949 µM
[4] = second compound 0.1 µM, first compound 0.03 µM
[5] = second compound 0.1 µM, first compound 0.0949 µM
[6] = second compound 0.1 µM, first compound 0.3 µM
[7] = second compound 0.316 µM, first compound 0.000949 µM
[8] = second compound 0.316 µM, first compound 0.003 µM
[9] = second compound 0.316 µM, first compound 0.00949 µM
[10] = second compound 0.316 µM, first compound 0.03 µM
[11] = second compound 0.316 µM, first compound 0.0949 µM
[12] = second compound 0.316 µM, first compound 0.3 µM
[13] = second compound 1 µM, first compound 0.000949 µM
[14] = second compound 1 µM, first compound 0.003 µM
[15] = second compound 1 µM, first compound 0.00949 µM
[16] = second compound 1 µM, first compound 0.03 µM
[17] = second compound 1 µM, first compound 0.0949 µM
[18] = second compound 1 µM, first compound 0.3 µM
[19] = second compound 3.16 µM, first compound 0.000949 µM
[20] = second compound 3.16 µM, first compound 0.003 µM
[21] = second compound 3.16 µM, first compound 0.00949 µM
[22] = second compound 3.16 µM, first compound 0.03 µM
[23] = second compound 3.16 µM, first compound 0.0949 µM
[24] = second compound 3.16 µM, first compound 0.3 µM
[25] = second compound 10 µM, first compound 0.000949 µM
[26] = second compound 10 µM, first compound 0.003 µM
[27] = second compound 10 µM, first compound 0.00949 µM
[28] = second compound 10 µM, first compound 0.03 µM
[29] = second compound 10 µM, first compound 0.0949 µM
[30] = second compound 10 µM, first compound 0.3 µM
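Note: compound exposure lasted 7 days after spheroids had grown for 3 days.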

CC(C)CC(NC(=O)C(Cc1ccccc1)NC(=O)c1cnccn1)B(O)O (stereo not given) + Cc1ccccc1N=Nc1ccc(NC(=O)c2ccnn2C)c(C)c1
17.1 nM: IC50 (second compound 10 µM)
15.1 nM: IC50 (second compound 3.16 µM)
15.4 nM: IC50 (second compound 0.1 µM) | IC50 (second compound 1 µM)
15.5 nM: IC50 (second compound 0.316 µM)
active: viability, T/C [4] 1.03% | viability, T/C [5] 0.47% | viability, T/C [6] 0.58% | viability, T/C [10] 0.65% | viability, T/C [11] 0.35% | viability, T/C [12] 0.4% | viability, T/C [16] 0.79% | viability, T/C [17] 0.52% | viability, T/C [18] 0.56% | viability, T/C [22] 1.35% | viability, T/C [23] 0.62% | viability, T/C [24] 0.61% | viability, T/C [28] 2.93% | viability, T/C [29] 0.98% | viability, T/C [30] 0.8%
inactive: viability, T/C [1] 86% | viability, T/C [2] 93% | viability, T/C [3] 85.9% | viability, T/C [7] 86% | viability, T/C [8] 105% | viability, T/C [9] 86.9% | viability, T/C [13] 97.9% | viability, T/C [14] 96.8% | viability, T/C [15] 85.3% | viability, T/C [19] 86.4% | viability, T/C [20] 90.7% | viability, T/C [21] 82.9% | viability, T/C [25] 120% | viability, T/C [26] 116% | viability, T/C [27] 98.9%

CCc1c2c(nc3ccc(O)cc13)-c1cc3c(c(=O)n1C2)COC(=O)[C@]3(O)CC + Cc1ccccc1N=Nc1ccc(NC(=O)c2ccnn2C)c(C)c1
22.3 nM: IC50 (second compound 3.16 µM)
inactive: viability, T/C [1] 87.4% | viability, T/C [2] 86.4% | viability, T/C [3] 52.5% | viability, T/C [4] 46.3% | viability, T/C [5] 46.9% | viability, T/C [6] 34.1% | viability, T/C [7] 103% | viability, T/C [8] 80% | viability, T/C [9] 52.2% | viability, T/C [10] 47.1% | viability, T/C [11] 41.8% | viability, T/C [12] 38.9% | viability, T/C [13] 85% | viability, T/C [14] 78.2% | viability, T/C [15] 50.8% | viability, T/C [16] 45% | viability, T/C [17] 39.6% | viability, T/C [18] 34.2% | viability, T/C [19] 95.7% | viability, T/C [20] 82% | viability, T/C [21] 57.2% | viability, T/C [22] 45.6% | viability, T/C [23] 42.8% | viability, T/C [24] 29.7% | viability, T/C [25] 115% | viability, T/C [26] 87.5% | viability, T/C [27] 60.5% | viability, T/C [28] 51.2% | viability, T/C [29] 49.9% | viability, T/C [30] 39.4%
12.3 nM: IC50 (second compound 1 µM)
12.8 nM: IC50 (second compound 0.1 µM)
44.4 nM: IC50 (second compound 10 µM)
15 nM: IC50 (second compound 0.316 µM)

COc1cc(Nc2ncc3c(n2)-c2ccc(Cl)cc2C(c2c(F)cccc2OC)=NC3)ccc1C(=O)O + Cc1ccccc1N=Nc1ccc(NC(=O)c2ccnn2C)c(C)c1
inactive: viability, T/C (second compound 0.1 µM, first compound 0.0316 µM) 89.9% | viability, T/C (second compound 0.1 µM, first compound 0.1 µM) 80.2% | viability, T/C (second compound 0.1 µM, first compound 0.316 µM) 65.3% | viability, T/C (second compound 0.1 µM, first compound 1 µM) 54.5% | viability, T/C (second compound 0.1 µM, first compound 3.16 µM) 54.4% | viability, T/C (second compound 0.1 µM, first compound 10 µM) 56.6% | viability, T/C (second compound 0.316 µM, first compound 0.0316 µM) 83.1% | viability, T/C (second compound 0.316 µM, first compound 0.1 µM) 68.7% | viability, T/C (second compound 0.316 µM, first compound 0.316 µM) 65.5% | viability, T/C (second compound 0.316 µM, first compound 1 µM) 59.5% | viability, T/C (second compound 0.316 µM, first compound 3.16 µM) 51.7% | viability, T/C (second compound 0.316 µM, first compound 10 µM) 48.4% | viability, T/C (second compound 1 µM, first compound 0.0316 µM) 86.8% | viability, T/C (second compound 1 µM, first compound 0.1 µM) 71.7% | viability, T/C (second compound 1 µM, first compound 0.316 µM) 74.3% | viability, T/C (second compound 1 µM, first compound 1 µM) 60.5% | viability, T/C (second compound 1 µM, first compound 3.16 µM) 56.9% | viability, T/C (second compound 1 µM, first compound 10 µM) 51.7% | viability, T/C (second compound 3.16 µM, first compound 0.0316 µM) 86.3% | viability, T/C (second compound 3.16 µM, first compound 0.1 µM) 82.6% | viability, T/C (second compound 3.16 µM, first compound 0.316 µM) 68.9% | viability, T/C (second compound 3.16 µM, first compound 1 µM) 61.1% | viability, T/C (second compound 3.16 µM, first compound 3.16 µM) 54.2% | viability, T/C (second compound 3.16 µM, first compound 10 µM) 50.1% | viability, T/C (second compound 10 µM, first compound 0.0316 µM) 91.7% | viability, T/C (second compound 10 µM, first compound 0.1 µM) 94.7% | viability, T/C (second compound 10 µM, first compound 0.316 µM) 74.8% | viability, T/C (second compound 10 µM, first compound 1 µM) 64.8% | viability, T/C (second compound 10 µM, first compound 3.16 µM) 66.8% | viability, T/C (second compound 10 µM, first compound 10 µM) 63.6%
6410 nM: IC50 (second compound 0.316 µM)
> 10000 nM: IC50 (second compound 0.1 µM) | IC50 (second compound 1 µM) | IC50 (second compound 3.16 µM) | IC50 (second compound 10 µM)

From PubChem BioAssay AID1919001 (Molecular Pharmacology Branch, DTP, NCI, 2023)
